Values quoted from earlier work in US20240287072A1, “SOLID STATE FORMS OF LUMATEPERONE SALTS AND PROCESSES FOR PREPARATION OF LUMATEPERONE AND SALTS THEREOF” (TEVA PHARMACEUTICALS INTERNATIONAL GMBH, priority 2018, published 2024).
Where a name gives a salt, the structure may show the parent alone.

Key:
[1] = hydrochloride salt disclosed in U.S. Pat. No. 7,183,282
[2] = hydrochloride salt disclosed in U.S. Pat. No. 7,183,282; remark: listed apart in the source
[3] = free base form, oily, sticky solid

stability [1]	hygroscopicity [2]	solubility [3]	Structure (SMILES)
poor	hygroscopic		CN1CCN2c3c(cccc31)[C@@H]1CN(CCCC(=O)c3ccc(F)cc3)CC[C@@H]12 [hydrochloride salt of lumateperone]
		poor	CN1CCN2c3c(cccc31)[C@@H]1CN(CCCC(=O)c3ccc(F)cc3)CC[C@@H]12 [lumateperone, 1-(4-fluorophenyl)-4-((6bR, 10aS)-3-methyl-2,3,6b,9,10,10a-hexahydro-1H-pyrido[3′,4′:4,5]pyrrolo[1,2,3-de]quinoxalin-8(7H)-yl)butan-1-one]
